Experimental data: US20260015358A1, “BICYCLIC DERIVATIVES, COMPOSITIONS AND USES THEREOF” (Danatlas Pharmaceuticals Co., Ltd., priority 2023, published 2026)

Tests used:
[1] = biological target: T1, WRN [UniPro: Q14191 (WRN_HUMAN), N500-C946] (Homo sapiens (Human), UniProt Q14191); assay: WRN ATPase assay (ADP-Glo); type: biochemical; conditions: WRN enzymatic activity assay
[2] = biological target: T1, WRN [UniPro: Q14191 (WRN_HUMAN), N500-C946]; assay: WRN unwinding assay (FORKF DNA, fluorescence); type: biochemical; conditions: Table 14

T1 sequence (Q14191 500-946): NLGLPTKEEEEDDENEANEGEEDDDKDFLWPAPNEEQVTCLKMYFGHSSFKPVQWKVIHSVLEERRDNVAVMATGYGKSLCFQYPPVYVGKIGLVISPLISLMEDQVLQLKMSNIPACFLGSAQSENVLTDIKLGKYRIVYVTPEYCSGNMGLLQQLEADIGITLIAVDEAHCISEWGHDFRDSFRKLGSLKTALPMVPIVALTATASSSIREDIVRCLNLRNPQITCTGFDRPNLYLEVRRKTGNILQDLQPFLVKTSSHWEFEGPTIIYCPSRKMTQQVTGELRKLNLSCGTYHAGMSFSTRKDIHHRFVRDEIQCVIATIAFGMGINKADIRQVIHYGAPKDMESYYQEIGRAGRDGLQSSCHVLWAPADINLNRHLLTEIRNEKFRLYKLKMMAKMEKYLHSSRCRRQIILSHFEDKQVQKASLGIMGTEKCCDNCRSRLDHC

Compound: CCc1c(N2CCN(C(=O)CNC(=O)c3ccccc3O)CC2)c(=O)n2nc(C3=CCOCC3)nc2n1CC(=O)Nc1ccc(C(F)(F)F)cc1Cl [Example 269, N-(2-(4-(4-(2-((2-Chloro-4-(trifluoromethyl)phenyl)amino)-2-oxoethyl)-2-(3,6-dihydro-2H-pyran-4-yl)-5-ethyl-7-oxo-4,7-dihydro-[1,2,4]triazolo[1,5-a]pyrimidin-6-yl)piperazin-1-yl)-2-oxoethyl)-2-hydroxybenzamide]
- IC50 [1]: < 100 nM
- IC50 [2]: < 100 nM

Compound: CCc1c(N2CCN(C(=O)CNC(=O)c3cccc(O)c3)CC2)c(=O)n2nc(C3=CCOCC3)nc2n1CC(=O)Nc1ccc(C(F)(F)F)cc1Cl [Example 270, N-(2-(4-(4-(2-((2-Chloro-4-(trifluoromethyl)phenyl)amino)-2-oxoethyl)-2-(3,6-dihydro-2H-pyran-4-yl)-5-ethyl-7-oxo-4,7-dihydro-[1,2,4]triazolo[1,5-a]pyrimidin-6-yl)piperazin-1-yl)-2-oxoethyl)-3-hydroxybenzamide]
- IC50 [1]: < 100 nM
- IC50 [2]: < 100 nM

Compound: CCc1c(N2CCN(C(=O)CNC(=O)c3ncccc3O)CC2)c(=O)n2nc(C3=CCOCC3)nc2n1CC(=O)Nc1ccc(C(F)(F)F)cc1Cl [Example 271, N-(2-(4-(4-(2-((2-Chloro-4-(trifluoromethyl)phenyl)amino)-2-oxoethyl)-2-(3,6-dihydro-2H-pyran-4-yl)-5-ethyl-7-oxo-4,7-dihydro-[1,2,4]triazolo[1,5-a]pyrimidin-6-yl)piperazin-1-yl)-2-oxoethyl)-3-hydroxypicolinamide]
- IC50 [1]: 100 to 1000 nM
- IC50 [2]: < 100 nM

Compound: CCc1c(N2CCN(C(=O)CNC(=O)CC3CCC3)CC2)c(=O)n2nc(C3=CCOCC3)nc2n1CC(=O)Nc1ccc(C(F)(F)F)cc1Cl [Example 272, N-(2-Chloro-4-(trifluoromethyl)phenyl)-2-(6-(4-((2-cyclobutylacetyl)glycyl)piperazin-1-yl)-2-(3,6-dihydro-2H-pyran-4-yl)-5-ethyl-7-oxo-[1,2,4]triazolo[1,5-a]pyrimidin-4(7H)-yl)acetamide]
- IC50 [1]: < 100 nM
- IC50 [2]: < 100 nM

Compound: CCc1c(N2CCN(C(=O)CNC(=O)CC3COC3)CC2)c(=O)n2nc(C3=CCOCC3)nc2n1CC(=O)Nc1ccc(C(F)(F)F)cc1Cl [Example 273, N-(2-Chloro-4-(trifluoromethyl)phenyl)-2-(2-(3,6-dihydro-2H-pyran-4-yl)-5-ethyl-6-(4-((2-(oxetan-3-yl)acetyl)glycyl)piperazin-1-yl)-7-oxo-[1,2,4]triazolo[1,5-a]pyrimidin-4(7H)-yl)acetamide]
- IC50 [1]: 100 to 1000 nM
- IC50 [2]: < 100 nM

Compound: CCc1c(N2CCN(C(=O)CNC(=O)Cc3ccccc3F)CC2)c(=O)n2nc(C3=CCOCC3)nc2n1CC(=O)Nc1ccc(C(F)(F)F)cc1Cl [Example 274, N-(2-Chloro-4-(trifluoromethyl)phenyl)-2-(2-(3,6-dihydro-2H-pyran-4-yl)-5-ethyl-6-(4-((2-(2-fluorophenyl)acetyl)glycyl)piperazin-1-yl)-7-oxo-[1,2,4]triazolo[1,5-a]pyrimidin-4(7H)-yl)acetamide]
- IC50 [1]: < 100 nM
- IC50 [2]: < 100 nM

Compound: CCc1c(N2CCN(C(=O)CNC(=O)CC3CC3)CC2)c(=O)n2nc(C3=CCOCC3)nc2n1CC(=O)Nc1ccc(C(F)(F)F)cc1Cl [Example 275, N-(2-Chloro-4-(trifluoromethyl)phenyl)-2-(6-(4-((2-cyclopropylacetyl)glycyl)piperazin-1-yl)-2-(3,6-dihydro-2H-pyran-4-yl)-5-ethyl-7-oxo-[1,2,4]triazolo[1,5-a]pyrimidin-4(7H)-yl)acetamide]
- IC50 [1]: < 100 nM
- IC50 [2]: < 100 nM

Compound: CCc1c(N2CCN(C(=O)CNC(=O)Cc3cscn3)CC2)c(=O)n2nc(C3=CCOCC3)nc2n1CC(=O)Nc1ccc(C(F)(F)F)cc1Cl [Example 276, N-(2-Chloro-4-(trifluoromethyl)phenyl)-2-(2-(3,6-dihydro-2H-pyran-4-yl)-5-ethyl-7-oxo-6-(4-((2-(thiazol-4-yl)acetyl)glycyl)piperazin-1-yl)-[1,2,4]triazolo[1,5-a]pyrimidin-4(7H)-yl)acetamide]
- IC50 [1]: < 100 nM
- IC50 [2]: < 100 nM

Compound: CCc1c(N2CCN(C(=O)CNC(=O)c3cccc(NC)c3)CC2)c(=O)n2nc(C3=CCOCC3)nc2n1CC(=O)Nc1ccc(C(F)(F)F)cc1Cl [Example 277, N-(2-(4-(4-(2-((2-Chloro-4-(trifluoromethyl)phenyl)amino)-2-oxoethyl)-2-(3,6-dihydro-2H-pyran-4-yl)-5-ethyl-7-oxo-4,7-dihydro-[1,2,4]triazolo[1,5-a]pyrimidin-6-yl)piperazin-1-yl)-2-oxoethyl)-3-(methylamino)benzamide]
- IC50 [1]: < 100 nM
- IC50 [2]: < 100 nM

Compound: CCc1c(N2CCN(C(=O)CNC(=O)c3cccc(NC(C)=O)c3)CC2)c(=O)n2nc(C3=CCOCC3)nc2n1CC(=O)Nc1ccc(C(F)(F)F)cc1Cl [Example 278, 3-Acetamido-N-(2-(4-(4-(2-((2-chloro-4-(trifluoromethyl)phenyl)amino)-2-oxoethyl)-2-(3,6-dihydro-2H-pyran-4-yl)-5-ethyl-7-oxo-4,7-dihydro-[1,2,4]triazolo[1,5-a]pyrimidin-6-yl)piperazin-1-yl)-2-oxoethyl)benzamide]
- IC50 [1]: < 100 nM
- IC50 [2]: < 100 nM

Compound: CCc1c(N2CCN(C(=O)CNC(=O)c3ccnc(O)c3)CC2)c(=O)n2nc(C3=CCOCC3)nc2n1CC(=O)Nc1ccc(C(F)(F)F)cc1Cl [Example 279, N-(2-(4-(4-(2-((2-Chloro-4-(trifluoromethyl)phenyl)amino)-2-oxoethyl)-2-(3,6-dihydro-2H-pyran-4-yl)-5-ethyl-7-oxo-4,7-dihydro-[1,2,4]triazolo[1,5-a]pyrimidin-6-yl)piperazin-1-yl)-2-oxoethyl)-2-hydroxyisonicotinamide]
- IC50 [1]: < 100 nM
- IC50 [2]: < 100 nM

Compound: CCc1c(N2CCN(C(=O)CNC(=O)c3cnccc3O)CC2)c(=O)n2nc(C3=CCOCC3)nc2n1CC(=O)Nc1ccc(C(F)(F)F)cc1Cl [Example 280, N-(2-(4-(4-(2-((2-Chloro-4-(trifluoromethyl)phenyl)amino)-2-oxoethyl)-2-(3,6-dihydro-2H-pyran-4-yl)-5-ethyl-7-oxo-4,7-dihydro-[1,2,4]triazolo[1,5-a]pyrimidin-6-yl)piperazin-1-yl)-2-oxoethyl)-4-hydroxynicotinamide]
- IC50 [1]: < 100 nM
- IC50 [2]: < 100 nM

Compound: CCc1c(N2CCN(C(=O)CNC(=O)c3cncc(O)c3)CC2)c(=O)n2nc(C3=CCOCC3)nc2n1CC(=O)Nc1ccc(C(F)(F)F)cc1Cl [Example 281, N-(2-(4-(4-(2-((2-Chloro-4-(trifluoromethyl)phenyl)amino)-2-oxoethyl)-2-(3,6-dihydro-2H-pyran-4-yl)-5-ethyl-7-oxo-4,7-dihydro-[1,2,4]triazolo[1,5-a]pyrimidin-6-yl)piperazin-1-yl)-2-oxoethyl)-5-hydroxynicotinamide]
- IC50 [1]: < 100 nM
- IC50 [2]: < 100 nM

Compound: CCc1c(N2CCN(C(=O)CNC(=O)c3cccnc3O)CC2)c(=O)n2nc(C3=CCOCC3)nc2n1CC(=O)Nc1ccc(C(F)(F)F)cc1Cl [Example 282, N-(2-(4-(4-(2-((2-Chloro-4-(trifluoromethyl)phenyl)amino)-2-oxoethyl)-2-(3,6-dihydro-2H-pyran-4-yl)-5-ethyl-7-oxo-4,7-dihydro-[1,2,4]triazolo[1,5-a]pyrimidin-6-yl)piperazin-1-yl)-2-oxoethyl)-2-hydroxynicotinamide]
- IC50 [1]: < 100 nM
- IC50 [2]: < 100 nM

Compound: CCc1c(N2CCN(C(=O)CNC(=O)c3cn(C)[nH]c3=O)CC2)c(=O)n2nc(C3=CCOCC3)nc2n1CC(=O)Nc1ccc(C(F)(F)F)cc1Cl [Example 283, N-(2-(4-(4-(2-((2-Chloro-4-(trifluoromethyl)phenyl)amino)-2-oxoethyl)-2-(3,6-dihydro-2H-pyran-4-yl)-5-ethyl-7-oxo-4,7-dihydro-[1,2,4]triazolo[1,5-a]pyrimidin-6-yl)piperazin-1-yl)-2-oxoethyl)-1-methyl-3-oxo-2,3-dihydro-1H-pyrazole-4-carboxamide]
- IC50 [1]: 100 to 1000 nM
- IC50 [2]: < 100 nM

Compound: CCc1c(N2CCN(C(=O)CNC(=O)c3cc(F)cc(NC)c3)CC2)c(=O)n2nc(C3=CCOCC3)nc2n1CC(=O)Nc1ccc(C(F)(F)F)cc1Cl [Example 284, N-(2-(4-(4-(2-((2-Chloro-4-(trifluoromethyl)phenyl)amino)-2-oxoethyl)-2-(3,6-dihydro-2H-pyran-4-yl)-5-ethyl-7-oxo-4,7-dihydro-[1,2,4]triazolo[1,5-a]pyrimidin-6-yl)piperazin-1-yl)-2-oxoethyl)-3-fluoro-5-(methylamino)benzamide]
- IC50 [1]: < 100 nM
- IC50 [2]: < 100 nM

Compound: CCc1c(N2CCN(C(=O)CNC(=O)c3ccc(F)c(NC)c3)CC2)c(=O)n2nc(C3=CCOCC3)nc2n1CC(=O)Nc1ccc(C(F)(F)F)cc1Cl [Example 285, N-(2-(4-(4-(2-((2-Chloro-4-(trifluoromethyl)phenyl)amino)-2-oxoethyl)-2-(3,6-dihydro-2H-pyran-4-yl)-5-ethyl-7-oxo-4,7-dihydro-[1,2,4]triazolo[1,5-a]pyrimidin-6-yl)piperazin-1-yl)-2-oxoethyl)-4-fluoro-3-(methylamino)benzamide]
- IC50 [1]: < 100 nM
- IC50 [2]: < 100 nM

Compound: CCc1c(N2CCN(C(=O)CNC(=O)c3ccc(F)c(N(C)C)c3)CC2)c(=O)n2nc(C3=CCOCC3)nc2n1CC(=O)Nc1ccc(C(F)(F)F)cc1Cl [Example 286, N-(2-(4-(4-(2-((2-Chloro-4-(trifluoromethyl)phenyl)amino)-2-oxoethyl)-2-(3,6-dihydro-2H-pyran-4-yl)-5-ethyl-7-oxo-4,7-dihydro-[1,2,4]triazolo[1,5-a]pyrimidin-6-yl)piperazin-1-yl)-2-oxoethyl)-3-(dimethylamino)-4-fluorobenzamide]
- IC50 [1]: < 100 nM
- IC50 [2]: < 100 nM

Compound: CCc1c(N2CCN(C(=O)CNC(=O)c3cccc(NC)c3F)CC2)c(=O)n2nc(C3=CCOCC3)nc2n1CC(=O)Nc1ccc(C(F)(F)F)cc1Cl [Example 287, N-(2-(4-(4-(2-((2-Chloro-4-(trifluoromethyl)phenyl)amino)-2-oxoethyl)-2-(3,6-dihydro-2H-pyran-4-yl)-5-ethyl-7-oxo-4,7-dihydro-[1,2,4]triazolo[1,5-a]pyrimidin-6-yl)piperazin-1-yl)-2-oxoethyl)-2-fluoro-3-(methylamino)benzamide]
- IC50 [1]: < 100 nM
- IC50 [2]: < 100 nM
